Measurements taken from patent US20230365590A1, “BIPHENYL COMPOUND AS IMMUNOMODULATOR, PREPARATION METHOD THEREFOR AND APPLICATION THEREOF” (SHENZHEN CHIPSCREEN BIOSCIENCES CO., LTD., priority 2020, published 2023).
pEC50: −log10 of the molar value.

System: PD-1/PD-L1 mediated inhibitory signal to T cell activation (CHO-PD-L1-CD3L cells and Jurkat-PD-1-NFAT cells)
Test: Blocking of PD-1/PD-L1 mediated inhibitory signal to T cell activation at cell level (NFAT luciferase reporter, co-culture)
Assay type: cell-based
Details: Homo sapiens, CHO-PD-L1-CD3L / Jurkat-PD-1-NFAT co-culture, 6 h
Description: In order to test the effect of interaction between PD-1 and PD-L1 on T cell activation signal in immune response, CHO-PD-L1-CD3L cells stably expressing human PD-L1 molecule and anti-CD3 single-chain antibody (ScFv) and Jurkat-PD-1-NFAT cells stably expressing human PD-1 molecule and NFAT reporter gene were constructed. When two kinds of cells are incubated together, anti-CD3 ScFv on the CHO cell surface and membrane CD3 molecule of Jurkat cell combine to transmit an activation signal into Jurkat cell. However, due to the binding of PD-L1 on the CHO cell surface and PD-1 molecule on the Jurkat cell surface at the same time, a signal for inhibiting activation is transmitted inward, so that luciferase reporter gene cannot be expressed. When an immunocheckpoint antibody or small-molecule inhibitor is added, the binding of PD-1 and PD-L1 is blocked, the NFAT pathway activated by CD3 ScFv antibody and CD3 cross-linking mediated T cell activation signal is no longer affected by the inhibitory signal, and the downstream luciferase reporter gene starts to be expressed. Chemiluminescence signals proportional to reporter gene activation can be detected by adding a catalytic substrate.
CHO-PD-L1-CD3L cells expressing human PD-L1 molecule and anti-CD3 single-chain antibody (ScFv) and Jurkat-PD-1-NFAT cells stably expressing human PD-1 molecule and NFAT reporter gene were all independently constructed and presented by Dr. Chen Bo (KeyMed Biosciences (Chengdu) Co., Ltd. Puromycin (Cat # 540411) and Hygromycin B (Cat # V900372) for stable culture of transfected cells were purchased from Sigma, PMA (Cat # P1585) was purchased from Sigma, and the anti human PD-L1 antibody (Cat # GMP-A066) was purchased from Novoprotein Company. The Luciferase substrate solution (Cat # E6485) and the luciferase-specific cell lysate 5×(Cat # E1531) were purchased from Promega company. The fluorescence detector Tecan (Spark 10M) was purchased from Tecan Company in Switzerland.
Main Process of Experiment • (1) On the day before the experiment, 100 μL of CHO-PD-L1-CD3L cells (about 4×10^4 cells/well) were inoculated at 37° C. overnight in a 96-well cell culture plate, and the culture medium was DMEM/F12 containing 10% FBS, 8 μg/mL Puromycin and 200 μg/mL Hygromycin B. • (2) The test compound was diluted with 0.1% PBST to obtain solutions with different concentration gradients, and then added into 96-well plates and incubated for 30 min in advance. The RPMI 1640 complete medium containing 10% FBS, 8 μg/mL Puromycin and 200 μg/mL Hygromycin B was used to adjust the Jurkat-PD-1-NFAT cell count to 2×10^5 cells/mL, and 100 ng/mL PMA (10 mg/mL storage solution prepared with DMSO) was added to amplify the T cell activation signal. 100 μL of the Jurkat-PD-1-NFAT cells were added into each well of the 96-well plates for co-culture. • (3) During the test reaction, control groups were set, including the solvent control without adding the test compound and the positive control with the addition of the […] in the experimental system. All tests were conducted by use of multiple holes. • (4) Incubation was continued at 37° C. for 6 h, 40 μL of 5×cell lysate was added directly, the solution was mixed well and placed at room temperature for 10 min to completely lyse cells. 50 μL of lysed cell solution was transferred to a fluorescence detection plate, 30 μL of luciferase substrate solution was then added, and the chemiluminescence detection program was immediately selected on the fluorescence detector for determination. • (5) Calculation formula of the inhibition rate of the test compound against T cell activation signal at the cell level: The inhibition rate against T cell activation signal (%)=(original chemiluminescence value of the test hole−solvent control)/(the highest original chemiluminescence value determined in the compound test hole−solvent control)×100%. […]

Row | Structure (SMILES) | pEC50
1 | COCC12CCC(CCN3CCc4c(nc(C(=O)Nc5cccc(-c6cccc(NC(=O)c7nc8c(n7C)CCN(CC79CCC(C(=O)O)(CC7)C9)C8)c6Cl)c5C)n4C)C3)(CC1)C2 [Compound I-12, 4-((2-((2-chloro-3′-(5-(2-(4-(methoxymethyl)bicyclo[2.2.1]heptan-1-yl)ethyl)-1-methyl-4,5,6,7-tetrahydro-1H-imidazo[4,5-c]pyridine-2-carboxamido)-2′-methyl-[1,1′-biphenyl]-3-yl)carbamoyl)-1-methyl-1,4,6,7-tetrahydro-5H-imidazo[4,5-c]pyridin-5-yl)methyl)bicyclo[2.2.1]heptane-1-carboxylic acid] | 7.42
2 | Cn1c(C(=O)Nc2cccc(-c3cccc(NC(=O)c4nc5c(n4C)CCN(CC46CCC(C(=O)O)(CC4)C6)C5)c3Cl)c2Cl)nc2c1CCN(CCO)C2 [Example 180] | 6.97
